# Reference: patent publication US20110158930A1, “METHOD FOR TREATMENT OF IRRITABLE BOWEL SYNDROME” (ASTELLAS PHARMA INC., priority 2008, published 2011)
# What was measured:
# [1] = test system: 5-HT induced diarrhea in mice; assay: 5-HT induced diarrhea in mice; type: in vivo, mouse
# Method: (§1) Ramosetron hydrochloride, polycarbophil calcium (Astellas Pharma, Inc.) and 5-HT creatinine sulfate (Wako Pure Chemical Industries Ltd.) were used. Ramosetron was dissolved and diluted with distilled water. Polycarbophil was prepared by decalcification of polycarbophil calcium according to a reported method (Yamada et al., Iyakuhin Kenkyu 1997; 28: 23-32), and suspended and diluted with distilled water. In this experiment, ramosetron was used and expressed as its hydrochloride form. All the test substances were orally administered in a dose of 12 mL/kg. In combined administration of ramosetron and polycarbophil, a mixed solution of the two drugs was prepared and this was orally administered.
# Each test substance was orally administered to male ICR mice (9-week age, Clea Japan, Inc.), and after 2 hours, 5-HT (3 mg/kg) was intraperitoneally administered (Miyata et al., J. Pharmacol. Exp. Ther. 1992; 261: 297-303). The mice were put individually in separate cages, and the condition of the stool excreted within 3 hours after the 5-HT administration was observed. The occurrence of diarrhea was defined in case where the excreted stool condition was loose stool (wet pasty stool) or watery stool (amorphous muddy stool). […]
# All the results were statistically analyzed using Statistical Analysis System ver. […] In this experiment, all the data were expressed as two significant figures. In the investigation using the diarrheal models, the incidence of diarrhea was calculated in each group, then the significance was evaluated according to the Fisher's exact test, and if desired, the significance level was corrected according to the Bonferroni's method for consideration of multiplicity (the case of P<0.05 or P<0.05/3 was given significance). In the experiments of spontaneous defecation, the mean value of total stool weight±SEM was calculated in every group, and the significance was evaluated according to Student's t-test (between two groups) or Dunnett's multiple comparison test (between multiple groups) (the case of P<0.05 was given significance).
# [2] = test system: restraint stress induced diarrhea in rats; assay: Restraint stress induced diarrhea in rats; type: in vivo, rat
# Method: Ramosetron hydrochloride, polycarbophil calcium (Astellas Pharma, Inc.) and 5-HT creatinine sulfate (Wako Pure Chemical Industries Ltd.) were used. Ramosetron was dissolved and diluted with distilled water. Polycarbophil was prepared by decalcification of polycarbophil calcium according to a reported method (Yamada et al., Iyakuhin Kenkyu 1997; 28: 23-32), and suspended and diluted with distilled water. In this experiment, ramosetron was used and expressed as its hydrochloride form. All the test substances were orally administered in a dose of 12 mL/kg. In combined administration of ramosetron and polycarbophil, a mixed solution of the two drugs was prepared and this was orally administered. Male Wistar rats (13 to 14-week age, Japan SLC Inc.) that had been fasted overnight were stressed by confinement in a restraint stress cage (KN-468, Natsume Seisakusho Co., Ltd.) (Hirata et al., Neurogastroenterol. Motil. 2008; 20: 557-565). The condition of the stool excreted within 3 hours after the initiation of the restraint stress was observed, and the occurrence of diarrhea was defined in case where the excreted stool condition was wet, amorphous and muddy stool. […] All the results were statistically analyzed using Statistical Analysis System ver. […] In this experiment, all the data were expressed as two significant figures. In the investigation using the diarrheal models, the incidence of diarrhea was calculated in each group, then the significance was evaluated according to the Fisher's exact test, and if desired, the significance level was corrected according to the Bonferroni's method for consideration of multiplicity (the case of P<0.05 or P<0.05/3 was given significance). In the experiments of spontaneous defecation, the mean value of total stool weight±SEM was calculated in every group, and the significance was evaluated according to Student's t-test (between two groups) or Dunnett's multiple comparison test (between multiple groups) (the case of P<0.05 was given significance).
# [3] = test system: spontaneous defecation in mice; assay: Spontaneous defecation in mice (total stool weight); type: in vivo, mouse; details: ddy mice
# Method: as §1
# In this experiment, male ddy mice (Nippon SLC, 5-week age) were used. Spontaneous defecation was measured individually in separate cages with a wire flooring under free drinking and free feeding condition. […]
# The effect of single administration of ramosetron or polycarbophil alone was investigated with the following group composition, and the total stool weight in 2 hours after administration of each test substance was measured (n=10 in every group): Distilled water administration group (control group); ramosetron administration group (10, 30 and 100 μg/kg); polycarbophil administration group (100, 300 and 1,000 mg/kg). […]
# All the results were statistically analyzed using Statistical Analysis System ver. […]
structure (smiles),measurement,setting,value
"Cn1cc(C(=O)[C@@H]2CCc3nc[nH]c3C2)c2ccccc21 [ramosetron, (−)-(R)-5-[(1-methyl-1H-indol-3-yl)carbonyl]-4,5,6,7-tetrahydro-1H-benzimidazole]",incidence of diarrhea,"[1]; ramosetron 30 μg/kg p.o. alone, 2 hours before 5-HT 3 mg/kg i.p., stool within 3 hours, ICR mice, n=24",58%
same,effect on 5-HT induced diarrhea,"[1]; ramosetron 10 to 100 μg/kg p.o. alone, n=12",dose-dependently inhibited
same,significance of inhibition of 5-HT induced diarrhea vs distilled water,"[1]; ramosetron 30 and 100 μg/kg p.o. alone, n=12, Fisher's exact test",significant inhibitory effect
same,incidence of diarrhea,"[2]; ramosetron 0.3 μg/kg p.o. alone, 4 hours before restraint stress, stool within 3 hours, Wistar rats, n=24",46%
same,effect on restraint stress induced diarrhea,"[2]; ramosetron 0.1 to 1 μg/kg p.o. alone, n=12",dose-dependently inhibited
same,significance of inhibition of restraint stress induced diarrhea vs distilled water,"[2]; ramosetron 0.3 and 1 μg/kg p.o. alone, n=12, Fisher's exact test",significant inhibitory effect
same,total stool weight in 2 hours vs distilled water group,"[3]; ramosetron 100 μg/kg p.o. single administration alone, n=10, Dunnett's test",significant reduction in the total stool weight
same,effect on spontaneous defecation (total stool weight in 2 hours),"[3]; ramosetron 10 to 100 μg/kg p.o. single administration alone, n=10",dose-dependently inhibited spontaneous defecation
